Like-named read-outs stand apart in the source and are kept apart here.
Columns and labels:
[1] = Pharmacokinetic study in rat plasma after oral administration of QJYQ (UHPLC-sMRM); assay type: in vivo, Sprague-Dawley rats; conditions: for AUC(0-inf): read-out: AUC(0-∞); for MRT inf: read-out: MRT (0-∞); for MRT last: read-out: MRT(0-t)
[2] = set-up: method as in Wang et al., 2008; Feng et al., 2017; conditions: alkaline and light and heat conditions; ref Wang et al., 2008; Feng et al., 2017; cited from earlier work
[3] = Stability of the working solution (4°C for 1 month); assay type: physicochemical
Method: (§1) The stability of analytes in plasma was evaluated by analyzing 4 QC samples (n = 6). The stability was included auto-sampler stability (keeping the sample in auto-sampler for 24 h), three times of freeze-thaw cycles stability (freezing cycle at −80°C, thawing cycle at room temperature), room temperature stability (storing samples at room temperature for 24 h), long-term stability (storing samples at −80°C for 1 month). […] Accompanying curve was established when testing the sample, calculate and compare the ratio of the actual measured concentration to the theoretical concentration, expressed in accuracy and RSD.

[4] = Stability of analytes in rat plasma (auto-sampler, freeze-thaw, room temperature, long-term); conditions: for Autosampler for 24 h Accuracy (%): autosampler 24 h; for Room temperature for 24 h Accuracy (%): room temperature 24 h; for −80°C for 1month Accuracy (%): −80°C 1 month; for Freeze thaw cycles Accuracy (%): three freeze-thaw cycles
Method: as §1

Caco-2 cell = test system: Caco-2 cell; set-up: method as in Cai et al., 2016; conditions: compared with baicalin; ref Cai et al., 2016; cited from earlier work
[5] = male, Sprague-Dawley, rat plasma, oral QJYQ 3.15 g/kg, n = 8, mean ± SD
[6] = male, Sprague-Dawley, rat plasma, oral QJYQ 3.15 g/kg, n = 8, mean ± SD, read-out: AUC(0-t)
[7] = male, Sprague-Dawley, rat plasma, oral QJYQ 3.15 g/kg, n = 8, mean ± SD, read-out: Cmax
[8] = rat plasma, oral QJYQ 3.15 g/kg, n = 8, mean ± SD

O=C(O)[C@H]1O[C@@H](Oc2cc3oc(-c4ccccc4)cc(=O)c3c(O)c2O)[C@H](O)[C@@H](O)[C@@H]1O [baicalin]
Tmax ([1]; male, Sprague-Dawley, rat, plasma, po, 3.15 g/kg, rat plasma, oral QJYQ 3.15 g/kg, n = 8, mean ± SD, read-out: Tmax): 7.22 ± 1.41 h | MRT ([1]; male, Sprague-Dawley, rat plasma, oral QJYQ 3.15 g/kg, MRT type not specified, read-out: MRT): > 8 h | half-life [1, 5]: 3.09 ± 0.87 h | AUC(0-t) [1, 6]: 49300 ± 24900 ng·h/mL | AUC(0-inf) [1, 5]: 49700 ± 24900 ng·h/mL | Cmax [1, 7]: 4520 ± 3140 ng/mL | MRT inf [1, 5]: 8.62 ± 0.53 h | MRT last [1, 5]: 8.45 ± 0.58 h | stability [2]: not stable | Working solution Accuracy (%) ([3]; 15.6 ng/mL): 83.1% | Working solution Accuracy (%) ([3]; 125 ng/mL): 105.0% | Working solution Accuracy (%) ([3]; 1000 ng/mL): 93.9% | Working solution Accuracy (%) ([3]; 5000 ng/mL): 87.7% | Autosampler for 24 h Accuracy (%) ([4]; 15.6 ng/mL): 111.0% | Room temperature for 24 h Accuracy (%) ([4]; 15.6 ng/mL): 98.5% | −80°C for 1month Accuracy (%) ([4]; 15.6 ng/mL): 98.9% | Autosampler for 24 h Accuracy (%) ([4]; 125 ng/mL): 113.0% | Room temperature for 24 h Accuracy (%) ([4]; 125 ng/mL): 104.0% | Freeze thaw cycles Accuracy (%) ([4]; 125 ng/mL): 89.3% | −80°C for 1month Accuracy (%) ([4]; 125 ng/mL): 98.1% | Autosampler for 24 h Accuracy (%) ([4]; 1000 ng/mL): 94.2% | Room temperature for 24 h Accuracy (%) ([4]; 1000 ng/mL): 96.8% | Freeze thaw cycles Accuracy (%) ([4]; 1000 ng/mL): 89.7% | −80°C for 1month Accuracy (%) ([4]; 1000 ng/mL): 91.4% | Autosampler for 24 h Accuracy (%) ([4]; 5000 ng/mL): 86.8% | Room temperature for 24 h Accuracy (%) ([4]; 5000 ng/mL): 89.0% | Freeze thaw cycles Accuracy (%) ([4]; 5000 ng/mL): 111.0% | −80°C for 1month Accuracy (%) ([4]; 5000 ng/mL): 90.3%

COc1c(O[C@@H]2O[C@H](C(=O)O)[C@@H](O)[C@H](O)[C@H]2O)cc(O)c2c(=O)cc(-c3ccccc3)oc12 [wogonoside]
Caco-2 cell membrane permeability (Caco-2 cell): greater than baicalin | AUC(0-t) ([1]; rat, in vivo, po, 3.15 g/kg): 73080.32 ± 34091.07 ng·h/mL | AUC(0-∞) ([1]; rat, in vivo, po, 3.15 g/kg): 73104.07 ± 34093.59 ng·h/mL | Cmax ([1]; rat, in vivo, po, 3.15 g/kg): 5052.10 ± 3277.54 ng/mL | MRT ([1]; rat, in vivo, po, 3.15 g/kg): greater than 8 h | MRT (0-∞) ([1]; rat, in vivo, po, 3.15 g/kg): 8.40 ± 0.83 h | MRT(0-t) ([1]; rat, in vivo, po, 3.15 g/kg): 8.39 ± 0.83 h | T1/2 ([1]; rat, in vivo, po, 3.15 g/kg): 2.67 ± 0.24 h | Tmax ([1]; rat, in vivo, po, 3.15 g/kg): 5.89 ± 3.26 h | stability [2]: not stable | Working solution Accuracy (%) ([3]; 62.5 ng/mL): 91.0% | Working solution Accuracy (%) ([3]; 500 ng/mL): 113.0% | Working solution Accuracy (%) ([3]; 1000 ng/mL): 105.0% | Working solution Accuracy (%) ([3]; 5000 ng/mL): 108.0% | Autosampler for 24 h Accuracy (%) ([4]; 62.5 ng/mL): 89.7% | Room temperature for 24 h Accuracy (%) ([4]; 62.5 ng/mL): 83.2% | Freeze thaw cycles Accuracy (%) ([4]; 62.5 ng/mL): 84.2% | −80°C for 1month Accuracy (%) ([4]; 62.5 ng/mL): 83.7% | Autosampler for 24 h Accuracy (%) ([4]; 500 ng/mL): 105.0% | Room temperature for 24 h Accuracy (%) ([4]; 500 ng/mL): 93.4% | −80°C for 1month Accuracy (%) ([4]; 500 ng/mL): 113.0% | Autosampler for 24 h Accuracy (%) ([4]; 1000 ng/mL): 98.7% | Room temperature for 24 h Accuracy (%) ([4]; 1000 ng/mL): 85.6% | Freeze thaw cycles Accuracy (%) ([4]; 1000 ng/mL): 95.1% | −80°C for 1month Accuracy (%) ([4]; 1000 ng/mL): 98.0% | Autosampler for 24 h Accuracy (%) ([4]; 5000 ng/mL): 97.5% | Room temperature for 24 h Accuracy (%) ([4]; 5000 ng/mL): 111.0% | Freeze thaw cycles Accuracy (%) ([4]; 5000 ng/mL): 90.9% | −80°C for 1month Accuracy (%) ([4]; 5000 ng/mL): 89.1%

O=C(O)C=Cc1ccc(O)cc1 [p-Coumaric acid]
half-life [1, 5]: 1.79 ± 0.38 h | AUC(0-t) [1, 6]: 381 ± 101 ng·h/mL | AUC(0-inf) [1, 5]: 385 ± 126 ng·h/mL | Cmax [1, 7]: 153 ± 33.4 ng/mL | MRT inf [1, 5]: 3.63 ± 1.57 h | MRT last [1, 5]: 3.03 ± 1.01 h | Working solution Accuracy (%) ([3]; 1.56 ng/mL): 81.9% | Working solution Accuracy (%) ([3]; 100 ng/mL): 95.9% | Working solution Accuracy (%) ([3]; 500 ng/mL): 92.8% | Autosampler for 24 h Accuracy (%) ([4]; 1.56 ng/mL): 83.2% | Room temperature for 24 h Accuracy (%) ([4]; 1.56 ng/mL): 82.7% | Freeze thaw cycles Accuracy (%) ([4]; 1.56 ng/mL): 95.1% | −80°C for 1month Accuracy (%) ([4]; 1.56 ng/mL): 110.0% | Autosampler for 24 h Accuracy (%) ([4]; 12.5 ng/mL): 102.0% | Room temperature for 24 h Accuracy (%) ([4]; 12.5 ng/mL): 96.1% | Freeze thaw cycles Accuracy (%) ([4]; 12.5 ng/mL): 95.2% | −80°C for 1month Accuracy (%) ([4]; 12.5 ng/mL): 85.1% | Autosampler for 24 h Accuracy (%) ([4]; 100 ng/mL): 96.9% | Room temperature for 24 h Accuracy (%) ([4]; 100 ng/mL): 98.7% | Freeze thaw cycles Accuracy (%) ([4]; 100 ng/mL): 87.0% | −80°C for 1month Accuracy (%) ([4]; 100 ng/mL): 115.0% | Autosampler for 24 h Accuracy (%) ([4]; 500 ng/mL): 115.0% | Room temperature for 24 h Accuracy (%) ([4]; 500 ng/mL): 97.8% | Freeze thaw cycles Accuracy (%) ([4]; 500 ng/mL): 88.7% | −80°C for 1month Accuracy (%) ([4]; 500 ng/mL): 109.0%

COc1ccc([C@@H]2CC(=O)c3c(O)cc(O[C@@H]4O[C@H](CO[C@@H]5O[C@@H](C)[C@H](O)[C@@H](O)[C@H]5O)[C@@H](O)[C@H](O)[C@H]4O)cc3O2)cc1O [hesperidin]
AUC(0-t) [1, 8]: 1058.05 ± 267.32 ng·h/mL | AUC(0-∞) [1, 8]: 1058.06 ± 267.32 ng·h/mL | Cmax [1, 8]: 604.36 ± 145.25 ng/mL | MRT (0-∞) [1, 8]: 4.52 ± 0.54 h | MRT(0-t) [1, 8]: 4.52 ± 0.54 h | T1/2 [1, 8]: 1.94 ± 0.03 h | Working solution Accuracy (%) ([3]; 12.5 ng/mL): 81.7% | Working solution Accuracy (%) ([3]; 50 ng/mL): 109.0% | Working solution Accuracy (%) ([3]; 100 ng/mL): 102.0% | Working solution Accuracy (%) ([3]; 500 ng/mL): 91.0% | Autosampler for 24 h Accuracy (%) ([4]; 12.5 ng/mL): 82.1% | Room temperature for 24 h Accuracy (%) ([4]; 12.5 ng/mL): 84.1% | Freeze thaw cycles Accuracy (%) ([4]; 12.5 ng/mL): 94.3% | −80°C for 1month Accuracy (%) ([4]; 12.5 ng/mL): 81.8% | Autosampler for 24 h Accuracy (%) ([4]; 50 ng/mL): 100.0% | Room temperature for 24 h Accuracy (%) ([4]; 50 ng/mL): 93.7% | Freeze thaw cycles Accuracy (%) ([4]; 50 ng/mL): 85.4% | −80°C for 1month Accuracy (%) ([4]; 50 ng/mL): 85.8% | Autosampler for 24 h Accuracy (%) ([4]; 100 ng/mL): 96.0% | Room temperature for 24 h Accuracy (%) ([4]; 100 ng/mL): 92.3% | Freeze thaw cycles Accuracy (%) ([4]; 100 ng/mL): 95.7% | −80°C for 1month Accuracy (%) ([4]; 100 ng/mL): 93.1% | Autosampler for 24 h Accuracy (%) ([4]; 500 ng/mL): 87.8% | Room temperature for 24 h Accuracy (%) ([4]; 500 ng/mL): 92.3% | Freeze thaw cycles Accuracy (%) ([4]; 500 ng/mL): 89.1% | −80°C for 1month Accuracy (%) ([4]; 500 ng/mL): 93.6%

— PMC10133546, “Simultaneous determination of multiple components in rat plasma by UHPLC-sMRM for pharmacokinetic studies after oral administration of Qingjin Yiqi Granules” (Frontiers in Pharmacology, 2023)
